The values that follow come from PMC10779086, “3-O-Methyltolcapone and Its Lipophilic Analogues Are Potent Inhibitors of Transthyretin Amyloidogenesis with High Permeability and Low Toxicity” (International Journal of Molecular Sciences, 2023).

Values joined by “and” are separate entries in the source; they are usually repeats but may differ in a detail not shown here. Identical values can stand only once. Like-named read-outs stand apart in the source and are kept apart here.

For data set [1] the following is noted: cited from earlier work.
Data set [2] can be described thus: Caco-2 intestinal permeability. The format is in vitro ADME, human. The conditions noted are these: human; for recovery at 60 min: Caco-2, pH 7.4, with Elacridar 2 µM; for Papp A→B at 60 min, 10 μM / Papp B→A at 60 min, 10 μM: Caco-2, pH 7.4. The procedure:
(§1) Caco-2 cells (cod. HTB-37) were bought from ATCC (American Type Culture Collection, Rockville, MD, USA). Caco-2 cells were cultured for 21 days on a 24 trans-well plate to reach the right confluence and differentiate until the formation of the intestinal epithelium mimetic monolayer. The test substance permeability was measured in both directions (apical to basolateral [A→B] and basolateral to apical [B→A]) across the cell monolayer. The assay was carried out in HBSS transport medium at pH 7.4. Test substance at single concentration (10 μM) was tested in duplicate at one time point (60 min). Monolayer integrity of Caco-2 cells was evaluated by TEER measurements during the experiment and by Lucifer Yellow test after the incubation with the test compound. The concentrations of the test substance and/or reference controls were measured by LC-MS/MS.
(§2) When the inhibitor leads the efflux ratio to a significant reduction (>50%) or to unity, the test compound is classified as a probable substrate of that efflux transporter. As control, the modulation of the efflux ratio of a reference known substrate (Digoxin) was evaluated with or without the respectively inhibitors in every experiment. […] In parallel, mass balance (%) of recovered test substance was also determined. […] Outside these ranges the permeability data is not reliable.

Data set [3] has as its system Caco-2 cells. Nature of the data set: Caco-2 intestinal permeability. The conditions noted are these: reduction of efflux ratio by Elacridar 2 µM. The format is in vitro ADME, human. The method, then: as §1, §2
The test system of data set [4] is Caco-2 cells. The conditions noted are these: expected value in brackets, cited from earlier work.
A short description of data set [5]: Kinetic solubility in PBS. In kind it is physicochemical. The conditions noted are these: Phosphate Buffered Saline (PBS), aqueous buffer, kinetic from dmso stock, PBS pH 7.4, 1% DMSO. The procedure:
(§3) The assay combines solubility and a non-cell-based Blood Brain Barrier permeability assay (Parallel Artificial Membrane Permeation Assay; PAMPA-BBB) into a single workflow in which a portion of the filtrate from the Solubility filter plate is added to the donor compartment of the MultiScreen filter plate for the PAMPA-BBB analysis. […] Solutions were filtered into a 96-well collection plate using vacuum filtration and then analysed by UV/Vis spectroscopy. The relative solubility was then calculated using the sum of the recorded values as compared to a standard calibration curve. […] PAMPA-BBB determination was carried out in a 96-well MultiScreen Permeability plate and the ability of a compound to diffuse from a Donor to an Acceptor compartment separated by a Porcine Brain Lipid Extract (PBLE) dissolved in dodecane (20 mg/mL) layer on a PVDF membrane support was measured. The assay was performed in duplicate in PBS at pH 7.4 and the analysis is carried out by UV/Vis spectroscopy.

Data set [6] addresses TTR (Homo sapiens, UniProt P02766). Nature of the data set: Isothermal titration calorimetry (ITC), one-binding-site model. The arrangement: made in house; host or cells: E. coli BL21. The settings on record: single-binding-site model, 25 °C. The procedure:
At an absorbance value of 600 nm around 0.3, the temperature was shifted to 30 °C.
Data were fitted using the “one-binding-site model” of the Malvern version of ORIGIN v.7. The heat of binding (ΔH), the stoichiometry (n), entropy (ΔS) and the dissociation constant (Kd) were then calculated from plots of the heat evolved per mole of ligand injected versus the molar ratio of ligand to protein using the software provided by the vendor (Table 3). Sample preparation is detailed below. […] A 10 µM protein stock in 2× buffer was then prepared and diluted 1:1 with a 10% DMSO solution, to obtain a 5 µM TTR solution in 1× buffer A and 5% DMSO. Different protein concentrations (3–5 µM) assayed in the replicates were prepared accordingly, starting from a 2× protein solution in 2× buffer A. Each ligand was dissolved in 100% DMSO and a 2 mM stock solution in 100% DMSO was prepared. A 200 µM compound solution was obtained in 10% DMSO and diluted 1:1 with 2× buffer A, to obtain a 100 µM ligand solution to be used for the ITC assays (in 1× buffer A and 5% DMSO).

A short description of data set [7]: Chromatographic Hydrophobicity Index (CHI). In kind it is physicochemical. From the text: The assay is a chromatographic fast gradient reversed-phase method which allows to characterize the lipophilicity of compounds in high throughput screening regime at three different pH values (2.0; 7.4; 10.5). The so defined CHI is obtained from the gradient (buffer/Acetonitrile) retention time after calibrating the chromatographic system with a test mixture of ten known standard compounds. For most compounds, CHI is between 0 and 100 and it approximates the percentage (by volume) of acetonitrile required to achieve an equal distribution of compound between the mobile and the lipophilic stationary phase of a C18 chromatographic column. Compounds that are not retained on the column are assigned to a CHI value < 0, which means very low lipophilicity. For highly lipophilic compounds, which are strongly retained by the column, a CHI value of >100 is assigned. For any value in between, the actual CHI value is calculated based on the calibration line of the reference compounds [49].

Data set [8] deals with SH-SY5Y neuroblastoma human cell line. Nature of the data set: Cytotoxicity in SH-SY5Y cells (ATP viability assay). The format is cell-based. The conditions noted are these: 48 h. The procedure: The neuroblastoma cell line SHSY-5Y (ATCC CRL2266) was cultured in EMEM ATCC medium supplemented with 10% FBS (Euroclone CAT No. ECS0180D), 100 units/mL penicillin, and 100 ug/mL streptomycin sulphate (Euroclone CAT No. ECB3001). Cells were grown at 37 °C in an atmosphere of 5% CO2 and plated at 10,000 cells/well in a 96-well plate (Corning Cat. N. 3610). The compounds were dissolved at a concentration of 10 mM in DMSO. Cells were stimulated for 48 h at 37 °C with serial dilutions of the compounds at the following concentrations: 0.1, 1, 10, 50, 100, and 200 μM and dispensed with an HP Dispenser (Tecan), as triplicates for each concentration. DMSO normalisation at 1.5% was performed in each well.
(§4) Cell viability was evaluated by measuring ATP levels using CellTiter Glo (Promega Cat.n. G7570) according to manufacturer’s instructions.

Data set [9] concerns HepG2 human liver cancer cell line. Nature of the data set: Cytotoxicity in HepG2 cells (ATP viability assay). The format is cell-based. The conditions noted are these: 48 h. The procedure: Compounds were dissolved at the concentration of 50 mM in DMSO.
DMSO normalisation at 1.0% was performed in each well.
as §4

The nature of data set [10]: Blood-brain barrier permeability (PAMPA-BBB). The format is in vitro ADME. The method, then: as §3
The compounds are classified into 2 types: CNS+ compounds that can cross the BBB and CNS- compounds that cannot according to the Pe values (BBB−, Pe < 2 × 10^−6 cm/s; BBB +/−, 2 × 10^−6 cm/s < Pe < 4 × 10^−6 cm/s; BBB+, Pe > 4 × 10^−6 cm/s).
Membrane retention is also evaluated according to Equation (1), (1) 1−Rm=CAccVAcc+CDonorVDonor/Sol×VDonor where Rm is the membrane retention factor. 1 − Rm between 1.2 and 0.8 is considered fully acceptable for the reliability of the results.

Data set [11] addresses TTR. The conditions noted are these: sequential model, cited from earlier work.

Consider `Cn1c(=O)c2c(ncn2C)n(C)c1=O` [Caffeine, caffeine], for which the “CNS Class [Expected Values]” value in data set [1] (expected class in brackets) is “CNS− [CNS−] (BBB−, Pe < 2 × 10^−6 cm/s)”. Also, in data set [1] (expected value in brackets), the “BBB-Pe [Expected Values]” value was 1.3 10^−6 cm/s.

Regarding `C[C@H]1O[C@@H](O[C@H]2[C@@H](O)C[C@H](O[C@H]3[C@@H](O)C[C@H](O[C@H]4CC[C@@]5(C)[C@H](CC[C@@H]6[C@@H]5C[C@@H](O)[C@]5(C)[C@@H](C7=CC(=O)OC7)CC[C@]65O)C4)O[C@@H]3C)O[C@@H]2C)C[C@H](O)[C@@H]1O` [Digoxin, reference compound], the recovery at 60 min, 10 µM was determined as 67 ± 5% in [2] (Caco-2, pH 7.4, A→B) and 71 ± 6% in data set [2] (Caco-2, pH 7.4, B→A). The recovery at 60 min in data set [2] (A→B + Elacridar 2 µM) was 72 ± 1%; in [2] (B→A + Elacridar 2 µM), 75 ± 3%. Moreover, in data set [2] (Caco-2, pH 7.4, without inhibitor, read-out: Efflux Ratio (Papp BA/Papp AB)), the efflux ratio at 60 min, 10 μM was over 10. This molecule gave a Papp A→B at 60 min, 10 μM in data set [2] of 2 ± 1 nm/s. The same molecule yielded a Papp B→A at 60 min, 10 μM in data set [2] of 141 ± 26 nm/s. The “Efflux Ratio (Reduction %)” value in data set [3] is on record as 96%. The “Papp [Expected Values]” value in [4] (A→B) is 2 nm/s; in data set [4] (B→A), 139 nm/s.

For the molecule `COCCc1ccc(OCC(O)CNC(C)C)cc1` (stereo not shown) [Metoprolol, reference compound], the recovery at 60 min, 10 µM in [2] (Caco-2, pH 7.4, A→B) came to 105 ± 5%. In data set [2], the Papp A→B at 60 min, 10 μM is over 400 nm/s. In addition, the “Papp [Expected Values]” value in data set [4] (A→B) was >400 [>400] nm/s.

For `Cn1c(=O)c2[nH]cnc2n(C)c1=O` [Theophylline, theophylline, reference compound], the solubility in data set [5] is over 500 µM.

On to `O=C(O)c1ccc2nc(-c3cc(Cl)cc(Cl)c3)oc2c1` [tafamidis, reference compound], for which, in data set [6], the “n (stoichiometry of binding, ligand:TTR tetramer)” value is 2.4 ± 0.1; the “∆H” value is -13.4 kJ/mol and -13.4 ± 1.3 kJ/mol.

For the molecule `Cc1ccc(C(=O)c2cc(O)c(O)c([N+](=O)[O-])c2)cc1` [tolcapone], the “CHI (pH 2.0)” value in [7] (pH 2.0) is 78.2. Moreover, the “CHI (pH 10.5)” value in [7] (pH 10.5) is reported as 49.3. Besides, the concentration giving a half-maximal response (EC50) was found to be 29.8 ± 1.1 µM in data set [8] and 17.5 ± 2.4 µM in data set [9]. The recovery at 60 min, 10 µM was 53 ± 1% in data set [2] (Caco-2, pH 7.4, A→B) and 70 ± 4% in data set [2] (Caco-2, pH 7.4, B→A). The same molecule showed an apical-to-basolateral permeability (Papp A→B) at 60 min, 10 μM in data set [2] of 101 ± 12 nm/s. The same molecule came in with a Papp B→A at 60 min, 10 μM in data set [2] of 206 ± 58 nm/s. Also, the “1-Rm (membrane retention)” value in [10] is 0.9. The Papp in data set [10] (PBS pH 7.4, read-out: BBB-Pe) is 56 nm/s. Also, the “CNS Class” value in data set [10] (classified by Pe) is given as “CNS+ (BBB+, Pe > 4 × 10^−6 cm/s)”. Besides, the solubility in data set [5] is over 500 µM. Further, the values for the Kd in data set [11] (read-out: Kd′ (first binding site)) and in [11] (read-out: Kd″ (second binding site)) were 0.021 µM and 0.058 µM, respectively. Further, the “n (stoichiometry of binding, ligand:TTR tetramer)” value in data set [6] worked out at 2.0 ± 0.1. Also, the “∆H” value in [6] is -49.4 kJ/mol and -49.4 ± 2.1 kJ/mol.
